In US20230063321A1, “Methods for Treating Inflammatory Bowel Diseases with alpha4beta7 Integrin Antagonists” (Protagonist Therapeutics, Inc., priority 2020, published 2023):
≈ marks a conversion by molar mass, not a printed value. Where “and” joins values, the source holds several entries; their conditions need not be identical. Equal values may be shown once. Numbered stars: 1 amine (or outer) side, 2 acyl side, 3 side chain; on linkers, the order of the positions; unused ones are H or OH. Bridge positions count the residues as written; N and C are the ends. Square brackets hold non-standard residues; d marks the D form. Peptide text beside a SMILES is read from it. I, II: the chains in the order shown. ξ: configuration not given here. Phe(4-tBu) = CC(C)(C)c1ccc(C[C@H](N)C(=O)O)cc1; Diglycolyl = O=C(COCC(=O)[*:2])[*:1]; NMeR = CN[C@@H](CCCNC(=N)N)C(=O)O; β3hE = N[C@@H](CCC(=O)O)CC(=O)O; Thr(3ξ) = CC(O)[C@H](N)C(=O)O; X1 = O=C(c1ccccc1C[*:2])[*:1]; Pen = CC(C)(S)[C@H](N)C(=O)O

Tests used:
[1] = clinical; settings: male, human, in vivo; for AUC(0-inf): AUCinf (ng · h/mL); for AUC(0-t): AUCt (ng · h/mL); for AUC: AUCtau (ng · h/mL); for Cmax: Cmax (ng/mL)
[2] = Oral bioavailability in mice; settings: mouse, in vivo
[3] = molecular target: T1, α4β7 receptor occupancy (Homo sapiens, UniProt P13612+P26010); experiment: Plasma concentration-receptor occupancy relationship, sigmoid Emax (Hill) model; settings: in vivo
T1 construct: the amount of α4β7 expression on the cell surface of circulating lymphocytes; endogenous in cells; host or cells: heparinized whole blood of healthy volunteers

[4] = molecular target: T2, α4β7 integrin on memory CD4+ T cells (Homo sapiens, UniProt P13612+P26010); experiment: Study 1 blood α4β7 receptor occupancy and receptor expression; format: in vivo; settings: for Average RE (%) / Average RO (%) / REmax (%) / ROmax (%) / Tmax for RE / Tmax for RO: Mean ± SD
T2 construct: the amount of α4β7 expression on the cell surface of circulating lymphocytes; endogenous in cells; host or cells: heparinized whole blood of healthy volunteers
Experimental: After staining is completed, the samples are treated with a red blood cell lysis and fixation buffer, washed and acquired on a flow cytometer. To quantify receptor occupancy on α4β7 expressing memory CD4 T cells, the […] fluorescence intensity (MFI) of Alexa647-labelled peptide within the vedolizumab+ memory CD4+ T cells was used. Receptor occupancy was calculated according to the following formula: [Percent RO]=(1−([Unblocked]−[Blocked])/([Baseline Unblocked]−[Baseline Blocked]))×100.
Expression of α4β7 is defined by MFI of vedolizumab within the memory CD4+ T cells from the unblocked samples. Receptor expression (RE) was calculated as percent change of MFI from baseline for the vedolizumab stain.

[5] = Stability of dosing solutions; format: physicochemical; settings: 50 mM phosphate buffer pH 7.4, stored at 2-8° C.
Experimental: Dose solutions were formulated in 50 mM phosphate buffer pH 7.4 and were prepared weekly by a qualified pharmacist.

[6] = tested on: primary CD4+ T-cells; experiment: Flow cytometry phenotype of proliferated CD4+ T-cells (Th subsets, surface β7); format: cell-based, human
Experimental: PBMCs were purified from healthy human donors and enrichment of CD4+ T cells was performed. […] Phenotype, distribution of T-helper (Th) subsets and % RO analyses were conducted by flow cytometry of freshly stained live samples.

[7] = 300 mg Fasted once daily, Day 1
[8] = 300 mg Fasted once daily, Day 14
[9] = 1000 mg Fasted once daily, Day 1
[10] = 1000 mg Fasted once daily, Day 14
[11] = single dose 1400 mg, listed as COMPOUND A
[12] = Anti-CD3 + MAdCAM1 + 1 uM Compound A

T2 sequence (P13612 34-1032): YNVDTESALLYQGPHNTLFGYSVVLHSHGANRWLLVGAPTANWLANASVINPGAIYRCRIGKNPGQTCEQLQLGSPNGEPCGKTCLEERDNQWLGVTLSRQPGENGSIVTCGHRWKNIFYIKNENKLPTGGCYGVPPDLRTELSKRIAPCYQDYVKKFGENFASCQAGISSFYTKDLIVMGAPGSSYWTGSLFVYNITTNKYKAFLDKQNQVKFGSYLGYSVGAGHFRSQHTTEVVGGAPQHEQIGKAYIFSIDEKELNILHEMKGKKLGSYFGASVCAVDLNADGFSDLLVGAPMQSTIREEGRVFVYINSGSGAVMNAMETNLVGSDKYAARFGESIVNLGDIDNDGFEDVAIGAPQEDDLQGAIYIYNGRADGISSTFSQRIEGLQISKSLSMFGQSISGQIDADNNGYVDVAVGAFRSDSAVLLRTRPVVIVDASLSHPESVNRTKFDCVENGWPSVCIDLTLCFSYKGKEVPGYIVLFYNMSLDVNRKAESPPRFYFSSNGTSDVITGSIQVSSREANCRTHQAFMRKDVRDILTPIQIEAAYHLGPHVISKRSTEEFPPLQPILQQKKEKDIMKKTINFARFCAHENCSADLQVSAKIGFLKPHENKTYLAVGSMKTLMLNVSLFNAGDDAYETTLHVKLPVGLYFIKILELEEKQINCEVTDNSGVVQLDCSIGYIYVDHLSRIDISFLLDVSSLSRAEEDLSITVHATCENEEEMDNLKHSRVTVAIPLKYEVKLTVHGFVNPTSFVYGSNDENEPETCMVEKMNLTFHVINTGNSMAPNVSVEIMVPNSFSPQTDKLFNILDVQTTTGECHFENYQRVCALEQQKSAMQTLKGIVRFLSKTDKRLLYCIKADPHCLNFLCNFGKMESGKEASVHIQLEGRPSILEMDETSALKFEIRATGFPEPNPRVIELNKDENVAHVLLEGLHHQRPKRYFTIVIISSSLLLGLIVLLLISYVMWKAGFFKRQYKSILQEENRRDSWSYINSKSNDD
T2 sequence (P26010 20-798): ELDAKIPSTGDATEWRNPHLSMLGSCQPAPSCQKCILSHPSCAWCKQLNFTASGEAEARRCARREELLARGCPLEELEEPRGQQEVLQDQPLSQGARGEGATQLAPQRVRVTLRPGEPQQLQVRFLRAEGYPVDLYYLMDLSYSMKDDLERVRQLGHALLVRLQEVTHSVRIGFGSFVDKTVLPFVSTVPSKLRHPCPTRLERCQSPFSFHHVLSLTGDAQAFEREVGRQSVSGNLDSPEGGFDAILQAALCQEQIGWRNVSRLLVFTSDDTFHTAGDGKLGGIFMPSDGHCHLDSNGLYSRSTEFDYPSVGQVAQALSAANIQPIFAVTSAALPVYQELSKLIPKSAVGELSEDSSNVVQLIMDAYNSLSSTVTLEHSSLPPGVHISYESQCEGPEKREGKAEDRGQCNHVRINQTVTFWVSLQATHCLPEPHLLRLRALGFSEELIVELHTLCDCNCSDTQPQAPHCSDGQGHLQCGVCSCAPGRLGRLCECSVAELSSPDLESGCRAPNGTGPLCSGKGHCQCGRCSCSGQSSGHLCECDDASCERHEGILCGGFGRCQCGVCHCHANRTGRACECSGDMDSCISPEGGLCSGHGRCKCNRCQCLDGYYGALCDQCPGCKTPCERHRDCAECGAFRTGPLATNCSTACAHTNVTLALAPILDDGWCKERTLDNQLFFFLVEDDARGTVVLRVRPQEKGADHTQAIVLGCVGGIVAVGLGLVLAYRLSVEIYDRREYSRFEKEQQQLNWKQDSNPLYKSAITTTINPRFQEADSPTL
T1 sequence (P13612 34-1032): as the sequence (P13612 34-1032) above
T1 sequence (P26010 20-798): as the sequence (P26010 20-798) above

## CC(C)C[C@@H]1NC(=O)[C@H](C(C)O)NC(=O)[C@H](CC(=O)O)NC(=O)[C@H](CO)NC(=O)[C@H](CCCNC(=N)N)N(C)C(=O)c2ccccc2CSC(C)(C)[C@@H](C(=O)N[C@@H](Cc2ccc(C(C)(C)C)cc2)C(=O)N[C@@H](CCC(=O)O)CC(=O)N[C@H](CCCCNC(=O)COCC(=O)NCCCC[C@@H](NC(=O)C[C@H](CCC(=O)O)NC(=O)[C@H](Cc2ccc(C(C)(C)C)cc2)NC(=O)[C@H]2NC(=O)[C@H](CC(C)C)NC(=O)[C@H](C(C)O)NC(=O)[C@H](CC(=O)O)NC(=O)[C@H](CO)NC(=O)[C@H](CCCNC(=N)N)N(C)C(=O)c3ccccc3CSC2(C)C)C(=O)O)C(=O)O)NC1=O (stereo partly drawn) [Compound A, ((2-Benzyl)-(N-Me-R)-Ser-Asp-Thr-Leu-Pen-(Phe(4-tBlu))-(β-homo-Glu)-(D-Lys)-OH)2 (SEQ ID NO: 5) and linker-DIG diglycolic acid] (I: [NMeR]SD[Thr(3ξ)]L[Pen][Phe(4-tBu)][β3hE][dK]-OH / II: [NMeR]SD[Thr(3ξ)]L[Pen][Phe(4-tBu)][β3hE][dK]-OH; linker I:9-II:9 via Diglycolyl; linker I:N-I:6, II:N-II:6 via X1)
450 mg BID or 150 mg BID
  Complete Mayo Score, Adapted Mayo Score, and/or Partial Mayo Score vs placebo: statistically significant improvement
In vivo
  safety of treatment: safe
[1]; 100 mg
  AUC(0-inf): 16.5 ng·h/mL
[1]; 300 mg
  AUC(0-inf): 57.6 ± 23.6 ng·h/mL
[1]; 450 mg
  AUC(0-t): 77.6 ± 37.1 ng·h/mL
  AUC: 41.5 ± 10.7 ng·h/mL
  Cmax: 9.96 ng/mL
[1]; 900 mg
  AUC(0-inf): 176 ± 98.5 ng·h/mL
  AUC(0-t): 159 ± 70.5 ng·h/mL
  AUC: 159 ± 70.5 ng·h/mL
  Cmax: 14.2 ng/mL
[1]; 1000 mg
  AUC(0-inf): 151 ± 31.7 ng·h/mL
  AUC(0-t): 138 ± 33.7 ng·h/mL
  Cmax: 15.3 ± 4.11 ng/mL
[1]; 1400 mg
  AUC(0-inf): 260 ng·h/mL
  AUC(0-t): 257 ± 173 ng·h/mL
  Cmax: 23.5 ng/mL
[2]
  bioavailability: < 1%
[3]; read-out: estimated IC50 for receptor occupancy (converted)
  IC50: 251 pM
[3]; read-out: estimated IC80 for receptor occupancy
  IC80: 5.9 ng/mL (≈ 2.14 nM)
[4]; 100 mg Fed once daily, Day 1
  Average RE (%): −12.3 ± 6.6%
  Average RO (%): 30.0 ± 7.7%
  REmax (%): −17.4 ± 7.5%
  ROmax (%): 46.8 ± 11.2%
  Tmax for RE: 14.0 ± 4.2 h
  Tmax for RO: 6.0 ± 3.7 h
[4]; 100 mg Fed once daily, Day 14
  Average RE (%): −23.8 ± 6.9%
  Average RO (%): 40.5 ± 7.5%
  REmax (%): −29.1 ± 7.2%
  ROmax (%): 55.5 ± 8.82%
  Tmax for RE: 12.0 ± 0 h
  Tmax for RO: 5.0 ± 2.8 h
[4]; [7]
  Average RE (%): −25.1 ± 4.4%
  Average RO (%): 53.9 ± 6.5%
  REmax (%): −33.1 ± 5.2%
  ROmax (%): 77.8 ± 5.13%
  Tmax for RE: 12.0 ± 0 h
  Tmax for RO: 4.0 ± 0 h
[4]; 300 mg Fasted once daily, Day 1, listed as COMPOUND A
  ROmax (%): 77.8%
[4]; [8]
  Average RE (%): −37.7 ± 5.2%
  Average RO (%): 61.1 ± 6.0%
  REmax (%): −41.5 ± 5.9%
  ROmax (%): 79.7 ± 5.40%
  Tmax for RE: 6.0 ± 3.7 h
  Tmax for RO: 4.0 ± 0 h
[4]; 300 mg Fasted once daily, Day 14, listed as COMPOUND A
  ROmax (%): 79.7%
[4]; 300 mg Fed once daily, Day 1
  Average RE (%): −20.1 ± 3.4%
  Average RO (%): 47.2 ± 7.5%
  REmax (%): −28.4 ± 4.4%
  ROmax (%): 70.4 ± 7.39%
  Tmax for RE: 12.0 ± 0 h
  Tmax for RO: 4.0 ± 0 h
[4]; 300 mg Fed once daily, Day 14
  Average RE (%): −31.7 ± 4.0%
  Average RO (%): 57.8 ± 3.9%
  REmax (%): −37.2 ± 4.7%
  ROmax (%): 78.9 ± 5.89%
  Tmax for RE: 12.0 ± 0 h
  Tmax for RO: 4.0 ± 0 h
[4]; 300 mg within 30 minutes following a high fat meal
  peak percent receptor occupancy: 61.4%
[4]; 450 mg BID, Day 1
  Average RE (%): −33.4 ± 4.4%
  Average RO (%): 76.4 ± 8.4%
  REmax (%): −42.6 ± 4.6%
  ROmax (%): 86.5% and 86.5 ± 4.11%
  Tmax for RE: 19 ± 4.7 h
  Tmax for RO: 16 ± 6.2 h
[4]; 450 mg BID, Day 5, N = 7
  Average RE (%): −44.3 ± 4.2%
  REmax (%): −47.3 ± 4.3%
  ROmax (%): 91.9% and 91.9 ± 3.42%
  Tmax for RE: 5.6 ± 5.1 h
  Tmax for RO: 2.3 ± 1.6 h
[4]; 450 mg BID, Day 5, N = 7, 24-hour AUEC
  Average RO (%): 85.3% and 85.3 ± 7.3%
[4]; 450 mg twice daily, read-out: trough receptor occupancy
  receptor occupancy at 450 mg: ~79.2%
[4]; 900 mg QD, Day 1
  Average RE (%): −38.3 ± 4.9%
  Average RO (%): 80.7 ± 6.7%
  REmax (%): −47.3 ± 5.0%
  ROmax (%): 94.5% and 94.5 ± 2.61%
  Tmax for RE: 13 ± 1.4 h
  Tmax for RO: 5.4 ± 3.9 h
[4]; 900 mg QD, Day 5
  Average RE (%): −44.6 ± 6.3%
  REmax (%): −50.1 ± 5.3%
  ROmax (%): 94.9% and 94.9 ± 1.97%
  Tmax for RE: 11 ± 3.9 h
  Tmax for RO: 3.3 ± 6.2 h
[4]; 900 mg QD, Day 5, 24-hour AUEC
  Average RO (%): 79.2% and 79.2 ± 8.7%
[4]; [9]
  Average RE (%): −33.9 ± 3.4%
  Average RO (%): 77.1 ± 3.7%
  REmax (%): −43.1 ± 4.0%
  ROmax (%): 91.3 ± 2.93%
  Tmax for RE: 12.0 ± 0 h
  Tmax for RO: 7.0 ± 4.1 h
[4]; 1000 mg Fasted once daily, Day 1, listed as COMPOUND A
  ROmax (%): 91.3%
[4]; [10]
  Average RE (%): −51.3 ± 3.1%
  Average RO (%): 81.5 ± 15.5%
  REmax (%): −57.3 ± 2.9%
  ROmax (%): 95.6 ± 0.97%
  Tmax for RE: 4.0 ± 0 h
  Tmax for RO: 4.0 ± 0 h
[4]; 1000 mg Fasted once daily, Day 14, listed as COMPOUND A
  ROmax (%): 95.6%
[4]; doses of 900 mg
  mean peak receptor occupancy: greater than 90%
[4]; once-daily 100 mg
  trough receptor occupancy: approximately 25.4%
[4]; once-daily 1000 mg
  trough receptor occupancy: ~78.6%
[4]; once-daily or twice-daily dosing
  receptor occupancy at trough: greater than 80%
[4]; single dose 100 mg
  Average RE (%): −21.6 ± 7.1%
  Average RO (%): 38.9 ± 12.5%
  ROmax (%): 61.8 ± 10.8%
  Tmax for RE: 11 ± 6.0 h
  Tmax for RO: 3.8 ± 2.2 h
[4]; single dose 100 mg, change from baseline
  REmax (%): −28.2 ± 7.97%
[4]; single dose 100 mg, change from baseline, listed as COMPOUND A
  REmax (%): −28.2%
[4]; single dose 100 mg, listed as COMPOUND A
  ROmax (%): 61.8%
[4]; single dose 300 mg
  Average RE (%): −32.4 ± 3.0%
  Average RO (%): 64.3 ± 6.6%
  REmax (%): −43.6 ± 3.69%
  ROmax (%): 83.4 ± 7.92%
  Tmax for RE: 12 ± 0 h
  Tmax for RO: 4.6 ± 2.3 h
[4]; single dose 300 mg, listed as COMPOUND A
  ROmax (%): 83.4%
[4]; single dose 1000 mg
  Average RE (%): −36.3 ± 2.9%
  Average RO (%): 81.0 ± 3.5%
  REmax (%): −45.4 ± 3.70%
  ROmax (%): 93.6 ± 2.04%
  Tmax for RE: 12 ± 0 h
  Tmax for RO: 4.1 ± 1.9 h
[4]; single dose 1400 mg
  Average RE (%): −40.3 ± 6.9%
  Average RO (%): 86.0 ± 6.8%
  REmax (%): −49.0 ± 8.20%
  ROmax (%): 94.8 ± 3.55%
  Tmax for RE: 12 ± 0 h
  Tmax for RO: 4.6 ± 3.2 h
[4]; [11]
  REmax (%): −49.0%
  ROmax (%): 94.8%
[5]
  dosing solutions demonstrated to be stable: 3 months
[6]; [12]
  Th1-IFNγ, CD4+ T-cells: 15%
  Th2-IL-4, CD4+ T-cells: 0.7%
  Th17-IL-17A, CD4+ T-cells: 0.6%
[6]; tested in 5 donors
  surface expression of β7 in undivided CD4+ T-cells: lowered
